# Publication PMC12652730, “The Chemoreceptive Molecular Mechanism Underlying CSP-Mediated Recognition of Seed Elaiosome from Stemona tuberosa by Hornets” (Genes, 2025)
# pIC50, pKi: −log10 of the molar value. Where two headings read alike, the source gives them in different places.
# How the values were obtained:
# VvelCSP4 = assay: Fluorescence competitive binding assay (1-NPN probe) with VvelCSP4; set-up: species or system Vespa velutina auraria; conditions: for pIC50: VvelCSP4 2 μM, 1-NPN 1 μM, Tris-HCl pH 7.5, single experiment, read-out: IC50 (ligand concentration displacing 50% of the fluorescence intensity of the CSPs/NPN complex); for pKi: derived from IC50, read-out: Ki (dissociation constant)
# Experimental: (§1) Fluorescence competitive binding assays were employed to characterize the interactions between VvelCSPs and 13 volatiles shared between the elaiosomes of S. tuberosa and the cuticular hydrocarbons of honeybees. These tests were performed in 1 cm path length quartz cuvettes with an excitation wavelength of 337 nm and emission wavelength scanning from 400–450 nm. The volatiles and the fluorescent probe 1-NPN (1-N-phenylnaphthylamine), listed in Supplementary Table S2, were dissolved in methanol to prepare 100 mM stock solutions, which were then diluted to 1 mM working solutions [25]. To remove any potential endogenous ligands, the purified proteins were delipidated by three washes with an equal volume of dichloromethane (1:1 v/v). Each wash involved a 10-min incubation, and the process was followed by evaporation of the residual solvent under a gentle stream of nitrogen. Purified CSPs were resuspended in 20 mM Tris-HCl buffer (pH 7.5) to a final concentration of 2 μM. Binding parameters for CSP-NPN were determined by titration: 2 mL of CSP solution (2 μM) was titrated with 1-NPN (final concentrations: 2−24 μM). Maximum fluorescence intensity was recorded, and the dissociation constant was calculated. […] After incubation in the dark for 2 min, fluorescence quenching was measured. Half-maximal inhibitory concentration (IC50) values for volatiles were calculated from the competition curves, and their binding constants (Ki) were subsequently derived. The presented data, including IC50 and Ki values, originate from a single experiment under uniform conditions to ensure comparability (Supplementary Table S3).
# VvelCSP1 = VvelCSP1 (Vespa velutina auraria, UniProt A0A384ZVP9); assay: Fluorescence competitive binding assay (1-NPN probe) with VvelCSP1
# Sequence of VvelCSP1 (A0A384ZVP9 entry or part of it): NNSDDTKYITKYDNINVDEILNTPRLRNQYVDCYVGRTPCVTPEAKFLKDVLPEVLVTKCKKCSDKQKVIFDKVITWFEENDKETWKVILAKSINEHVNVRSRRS
# Experimental: as §1
# CsasCSP16 = target: CsasCSP16; set-up: method as in PMID 34082360; conditions: CsasCSP16 from Carposina sasakii ref 42; cited from earlier work
"Raw fluorescence intensity (VvelCSP4; VvelCSP4, chemical 0.5 μM)","Raw fluorescence intensity (VvelCSP4; VvelCSP4, chemical 1 μM)","Raw fluorescence intensity (VvelCSP4; VvelCSP4, chemical 2 μM)","Raw fluorescence intensity (VvelCSP4; VvelCSP4, chemical 4 μM)","Raw fluorescence intensity (VvelCSP4; VvelCSP4, chemical 6 μM)","Raw fluorescence intensity (VvelCSP4; VvelCSP4, chemical 8 μM)","Raw fluorescence intensity (VvelCSP4; VvelCSP4, chemical 12 μM)","Raw fluorescence intensity (VvelCSP4; VvelCSP4, chemical 16 μM)","Raw fluorescence intensity (VvelCSP1; VvelCSP1, chemical 0.5 μM)","Raw fluorescence intensity (VvelCSP1; VvelCSP1, chemical 1 μM)","Raw fluorescence intensity (VvelCSP1; VvelCSP1, chemical 2 μM)","Raw fluorescence intensity (VvelCSP1; VvelCSP1, chemical 4 μM)","Raw fluorescence intensity (VvelCSP1; VvelCSP1, chemical 6 μM)","Raw fluorescence intensity (VvelCSP1; VvelCSP1, chemical 8 μM)","Raw fluorescence intensity (VvelCSP1; VvelCSP1, chemical 12 μM)","Raw fluorescence intensity (VvelCSP1; VvelCSP1, chemical 16 μM)",pIC50 (VvelCSP4),pKi (VvelCSP4; VvelCSP4),SMILES,further results
216.07,200.62,183.85,171.56,162.42,148.29,139.28,135.24,211.63,196.09,180.51,166.41,152.93,143.85,139.39,137.14,–,–,CCCCCCCCCCCCCCCCCCCCCCCCCCCCCC [Triacontane],"IC50 (VvelCSP4; VvelCSP4, read-out: IC50 (μM), no binding symbol): > 24 µM; Ki (VvelCSP4; VvelCSP4, read-out: Ki (μM), no binding symbol): > 18 µM"
207.46,177.45,153.67,134.98,119.90,111.62,110.10,107.68,193.01,170.16,140.89,116.63,101.34,94.22,88.89,86.00,5.29,5.41,CCCCCCCCCCCCCCCCCCCCCCC [Tricosane],–
182.16,152.13,132.92,109.71,96.72,89.44,84.83,83.78,214.80,200.54,176.56,164.98,151.46,137.73,126.20,120.19,5.40,5.53,CCCCCCCC/C=C\CCCCCCCCCCCCC [Z-9-Tricosene],–
–,–,–,–,–,–,–,–,–,–,–,–,–,–,–,–,–,–,CCCCCCCCCCCCCCC [pentadecane],pKi (CsasCSP16): 5.46
